Measurements from BigSolDB 2.1.

CNC(=O)c1cc(Oc2ccc(NC(=O)Nc3ccc(Cl)c(C(F)(F)F)c3)cc2)ccn1
solubility (mole fraction) (in 2-butanone, 273.15 K): 0.00666 | solubility (mole fraction) (in 2-butanone, 278.15 K): 0.00725 | solubility (mole fraction) (in 2-butanone, 283.15 K): 0.0079 | solubility (mole fraction) (in 2-butanone, 288.15 K): 0.00856 | solubility (mole fraction) (in 2-butanone, 293.15 K): 0.00929 | solubility (mole fraction) (in 2-butanone, 298.15 K): 0.0101 | solubility (mole fraction) (in 2-butanone, 303.15 K): 0.0111 | solubility (mole fraction) (in 2-butanone, 308.15 K): 0.0122 | solubility (mole fraction) (in 2-butanone, 313.15 K): 0.0133 | solubility (mole fraction) (in acetone, 273.15 K): 0.00227 | solubility (mole fraction) (in acetone, 278.15 K): 0.00259 | solubility (mole fraction) (in acetone, 283.15 K): 0.00293 | solubility (mole fraction) (in acetone, 288.15 K): 0.00329 | solubility (mole fraction) (in acetone, 293.15 K): 0.00369 | solubility (mole fraction) (in acetone, 298.15 K): 0.00405 | solubility (mole fraction) (in acetone, 303.15 K): 0.00448 | solubility (mole fraction) (in acetone, 308.15 K): 0.00488 | solubility (mole fraction) (in acetone, 313.15 K): 0.00558 | solubility (mole fraction) (in acetonitrile, 273.15 K): 0.000162 | solubility (mole fraction) (in acetonitrile, 278.15 K): 0.000194 | solubility (mole fraction) (in acetonitrile, 283.15 K): 0.000239 | solubility (mole fraction) (in acetonitrile, 288.15 K): 0.000282 | solubility (mole fraction) (in acetonitrile, 293.15 K): 0.000334 | solubility (mole fraction) (in acetonitrile, 298.15 K): 0.000396 | solubility (mole fraction) (in acetonitrile, 303.15 K): 0.000476 | solubility (mole fraction) (in acetonitrile, 308.15 K): 0.000571 | solubility (mole fraction) (in acetonitrile, 313.15 K): 0.000678 | solubility (mole fraction) (in cyclohexanone, 273.15 K): 0.0114 | solubility (mole fraction) (in cyclohexanone, 278.15 K): 0.0124 | solubility (mole fraction) (in cyclohexanone, 283.15 K): 0.0138 | solubility (mole fraction) (in cyclohexanone, 288.15 K): 0.0153 | solubility (mole fraction) (in cyclohexanone, 293.15 K): 0.0169 | solubility (mole fraction) (in cyclohexanone, 298.15 K): 0.0189 | solubility (mole fraction) (in cyclohexanone, 303.15 K): 0.0209 | solubility (mole fraction) (in cyclohexanone, 308.15 K): 0.0229 | solubility (mole fraction) (in cyclohexanone, 313.15 K): 0.0251 | solubility (mole fraction) (in ethanol, 273.15 K): 0.000645 | solubility (mole fraction) (in ethanol, 278.15 K): 0.000727 | solubility (mole fraction) (in ethanol, 283.15 K): 0.000817 | solubility (mole fraction) (in ethanol, 288.15 K): 0.000922 | solubility (mole fraction) (in ethanol, 293.15 K): 0.00103 | solubility (mole fraction) (in ethanol, 298.15 K): 0.00114 | solubility (mole fraction) (in ethanol, 303.15 K): 0.00127 | solubility (mole fraction) (in ethanol, 308.15 K): 0.0014 | solubility (mole fraction) (in ethanol, 313.15 K): 0.00155 | solubility (mole fraction) (in ethyl acetate, 273.15 K): 0.000835 | solubility (mole fraction) (in ethyl acetate, 278.15 K): 0.001 | solubility (mole fraction) (in ethyl acetate, 283.15 K): 0.00119 | solubility (mole fraction) (in ethyl acetate, 288.15 K): 0.00142 | solubility (mole fraction) (in ethyl acetate, 293.15 K): 0.00165 | solubility (mole fraction) (in ethyl acetate, 298.15 K): 0.00192 | solubility (mole fraction) (in ethyl acetate, 303.15 K): 0.00222 | solubility (mole fraction) (in ethyl acetate, 308.15 K): 0.00255 | solubility (mole fraction) (in ethyl acetate, 313.15 K): 0.00293 | solubility (mole fraction) (in isobutanol, 273.15 K): 0.000433 | solubility (mole fraction) (in isobutanol, 278.15 K): 0.000498 | solubility (mole fraction) (in isobutanol, 283.15 K): 0.00058 | solubility (mole fraction) (in isobutanol, 288.15 K): 0.000661 | solubility (mole fraction) (in isobutanol, 293.15 K): 0.000755 | solubility (mole fraction) (in isobutanol, 298.15 K): 0.000854 | solubility (mole fraction) (in isobutanol, 303.15 K): 0.000972 | solubility (mole fraction) (in isobutanol, 308.15 K): 0.0011 | solubility (mole fraction) (in isobutanol, 313.15 K): 0.00126 | solubility (mole fraction) (in isopropanol, 273.15 K): 0.000498 | solubility (mole fraction) (in isopropanol, 278.15 K): 0.000573 | solubility (mole fraction) (in isopropanol, 283.15 K): 0.000665 | solubility (mole fraction) (in isopropanol, 288.15 K): 0.000761 | solubility (mole fraction) (in isopropanol, 293.15 K): 0.000866 | solubility (mole fraction) (in isopropanol, 298.15 K): 0.000975 | solubility (mole fraction) (in isopropanol, 303.15 K): 0.0011 | solubility (mole fraction) (in isopropanol, 308.15 K): 0.00123 | solubility (mole fraction) (in isopropanol, 313.15 K): 0.00138 | solubility (mole fraction) (in methanol, 273.15 K): 0.000385 | solubility (mole fraction) (in methanol, 278.15 K): 0.000422 | solubility (mole fraction) (in methanol, 283.15 K): 0.000459 | solubility (mole fraction) (in methanol, 288.15 K): 0.000509 | solubility (mole fraction) (in methanol, 293.15 K): 0.000564 | solubility (mole fraction) (in methanol, 298.15 K): 0.000628 | solubility (mole fraction) (in methanol, 303.15 K): 0.000701 | solubility (mole fraction) (in methanol, 308.15 K): 0.000769 | solubility (mole fraction) (in methanol, 313.15 K): 0.000848 | solubility (mole fraction) (in n-butanol, 273.15 K): 0.000726 | solubility (mole fraction) (in n-butanol, 278.15 K): 0.000817 | solubility (mole fraction) (in n-butanol, 283.15 K): 0.000919 | solubility (mole fraction) (in n-butanol, 288.15 K): 0.00103 | solubility (mole fraction) (in n-butanol, 293.15 K): 0.00116 | solubility (mole fraction) (in n-butanol, 298.15 K): 0.0013 | solubility (mole fraction) (in n-butanol, 303.15 K): 0.00145 | solubility (mole fraction) (in n-butanol, 308.15 K): 0.00162 | solubility (mole fraction) (in n-butanol, 313.15 K): 0.00182 | solubility (mole fraction) (in n-propanol, 273.15 K): 0.000756 | solubility (mole fraction) (in n-propanol, 278.15 K): 0.00086 | solubility (mole fraction) (in n-propanol, 283.15 K): 0.000978 | solubility (mole fraction) (in n-propanol, 288.15 K): 0.00111 | solubility (mole fraction) (in n-propanol, 293.15 K): 0.00126 | solubility (mole fraction) (in n-propanol, 298.15 K): 0.00143 | solubility (mole fraction) (in n-propanol, 303.15 K): 0.00162 | solubility (mole fraction) (in n-propanol, 308.15 K): 0.00183 | solubility (mole fraction) (in n-propanol, 313.15 K): 0.00207 | solubility (mole fraction) (in toluene, 273.15 K): 0.00197 | solubility (mole fraction) (in toluene, 278.15 K): 0.00218 | solubility (mole fraction) (in toluene, 283.15 K): 0.00234 | solubility (mole fraction) (in toluene, 288.15 K): 0.00255 | solubility (mole fraction) (in toluene, 293.15 K): 0.00282 | solubility (mole fraction) (in toluene, 298.15 K): 0.00313 | solubility (mole fraction) (in toluene, 303.15 K): 0.00352 | solubility (mole fraction) (in toluene, 308.15 K): 0.00382 | solubility (mole fraction) (in toluene, 313.15 K): 0.00428
